In US3994981A, “Derivatives of certain geranyl phenyl ethers” (Stauffer Chemical Company, priority 1973, dated 1976):

Test system: yellow mealworm, Tenebrio molitor, L.
Assay: Insecticidal evaluation test: hindering metamorphosis of insects (Tenebrio molitor pupae, topical application)
Assay type: in vivo
Details: applied in acetone to the venter of pupae 1-25 hours old; 28° C., 40% humidity; graded at adult emergence (6-8 days); average of 2 groups of 20 pupae
Procedure: The degree of activity of a candidate compound to hinder or impede the metamorphosis of insects is measured by treating the penultimate larval stage of a representative insect with the compound and examining it after its last molt toward the adult form for retention of immature features.
Specifically, yellow mealworm, Tenebrio molitor, L., larvae are maintained at 28° C. and 40% humidity on a diet of bran flakes. Prepupae care collected from the culture and kept in separate containers. The pupae collected once daily, are 1-25 hours old at the time of treatment. By means of a syringe, suitable amounts of candidate compounds in […] of acetone are applied to the ventor of Tenebrio molitor, L. pupae. Treated pupae are maintained at 28° C. and 40% humidity until the adults emerged (usually within 6-8 days). Emerged adults are graded as positive, negative, or dead. To be considered a positive response, the presence of typical pupal cuticle, urogomphi, gin trap, and abnormal wings, etc., are required. For each test, 2 groups of 20 pupae were used and the averaged results were reported.
The dose of a candidate compound per pupa that is needed to kill or give a positive response in the above insecticidal evaluation test for 10 of the 20 pupae is determined.

Row | Structure (SMILES) | ED50: dose per pupa needed to kill or give a positive response for 10 of the 20 pupae [μg/pupa]
1 | C=C(C)C(Cl)CCC(C)=CCOc1ccc(SC)cc1 (stereo not shown) [Compound 1] | 0.3
2 | C=C(C)C(Cl)CCC(C)=CCOc1ccc(CC)cc1 (stereo not shown) [Compound 2, 1-(4'-ethyl) phenoxy-3,7-dimethyl-6-chloro-2,7-octadiene] | 0.1
3 | C=C(C)C(Br)CCC(C)=CCOc1ccc(CC)cc1 (stereo not shown) [Compound 3, 1-(4'-ethyl) phenoxy-3,7-dimethyl-6-bromo-2,7-octadiene] | 0.5
4 | C=C(C)C(Cl)CCC1(C)OC1COc1ccc(CC)cc1 (stereo not shown) [Compound 24, 3,7-dimethyl-6-chloro-1-p-ethylphenoxy-2,3-epoxy-7-octene] | 0.03
